Legend:
[1] = In vitro drug release from pessaries, USP Method XXIII Apparatus 2; type: physicochemical; conditions: 37° C., 50 rpm
Protocol: The drug loaded polymer were analysed for in vitro drug release following USP Method XXIII, Apparatus 2 at 37° C., with 50 rpm paddle speed. Drug release was analysed by ultraviolet spectroscopy or high pressure liquid chromatography (HPLC) as appropriate.
Rate of drug release k values of each dissolution profile was determined by calculating the slope of graph % drug release versus square root time. All the linear relationship between % drug release and square root time has R^2 correlation value […].

[2] = cited from earlier work
[3] = from A03003 (CLP) cross-linked polymer pessaries
[4] = from A03030 (LP) linear polymer pessaries
[5] = from A03032 (LP) linear polymer pessaries

Row | Compound | Rate of drug release, k [1, 3] | Rate of drug release, k [1, 4] | Rate of drug release, k [1, 5] | Drug solubility (in water), in words [2] | Rate of drug release, k ([1]; from A03033 (LP) linear polymer pessaries)
1 | CC[C@H](C)[C@@H]1NC(=O)[C@H](Cc2ccc(O)cc2)NC(=O)[C@@H](N)CSSC[C@@H](C(=O)N2CCC[C@H]2C(=O)N[C@@H](CC(C)C)C(=O)NCC(N)=O)NC(=O)[C@H](CC(N)=O)NC(=O)[C@H](CCC(N)=O)NC1=O [OXY, Oxytocin] | 6.749 minute^−0.5 | 7.875 minute^−0.5 | 7.85 minute^−0.5 |  | 
2 | CCCCC(C)(O)C/C=C/[C@H]1[C@H](O)CC(=O)[C@@H]1CCCCCCC(=O)OC (mixture of isomers) [MIS, misoprostol] |  |  |  | Insoluble | 
3 | CC(=O)[C@H]1CC[C@H]2[C@@H]3CCC4=CC(=O)CC[C@]4(C)[C@H]3CC[C@]12C [PRO, Progesterone] | 2.414 minute^−0.5 |  |  | Insoluble | 1.256 minute^−0.5
4 | CC(C)(C)NCC(O)c1cc(O)cc(O)c1 (centres unmarked) [TBS, Terbutaline sulphate] | 13.628 minute^−0.5 | 13.262 minute^−0.5 | 11.954 minute^−0.5 | Soluble | 
